Measured values: US10588317B2, “Isoxazoline-substituted benzamides and analogues as insecticides” (priority 2015, dated 2020)
Where two headings read alike, the source gives them in different places.

Key:
Format in all cases: in vivo
[1] = system: Plutella xylostella; experiment: Plutella xylostella (diamond back moth), artificial diet; conditions: 120 h, read-out: effect in at least one of the two categories (mortality or growth inhibition); for percent effect (mortality or growth inhibition) at 200 ppm: application rate 200 ppm, L2 larvae, 5 days after infestation
Description: (§1) 24-well microtiter plates with artificial diet were treated with aqueous test solutions prepared from 10'000 ppm DMSO stock solutions by pipetting. After drying, the plates were infested with L2 larvae (10 to 15 per well). The samples were assessed for mortality and growth inhibition in comparison to untreated samples 5 days after infestation.
(§2) The following compounds gave an effect of at least 80% in at least one of the two categories (mortality or growth inhibition) at an application rate of 200 ppm: […]

[2] = system: Tetranychus urticae; experiment: Tetranychus urticae (two-spotted spider mite): feeding/contact activity; conditions: 192 h, application rate 200 ppm, mixed population (mobile stages), 8 days after infestation, read-out: mortality
Description: Bean leaf discs on agar in 24-well microtiter plates were sprayed with aqueous test solutions prepared from 10'000 ppm DMSO stock solutions. After drying the leaf discs were infested with a mite population of mixed ages. The samples were assessed for mortality on mixed population (mobile stages) 8 days after infestation.

[3] = system: Diabrotica balteata; experiment: Diabrotica balteata (corn root worm), sprayed maize sprouts; conditions: 96 h, application rate 200 ppm, L2 larvae, 4 days after infestation, read-out: effect in at least one of the two categories (mortality or growth inhibition)
Description: as §1, with “Maize sprouts placed onto an agar layer in 24-well” for “24-well”, “plates” for “plates with artificial diet”, “spraying.” for “pipetting.”, “(6” for “(10”, “10” for “15”, “4” for “5”
as §2

[4] = system: Spodoptera littoralis; experiment: Spodoptera littoralis (Egyptian cotton leaf worm), sprayed cotton leaf discs; conditions: foliar, 72 h, read-out: control (mortality, anti-feeding effect, growth inhibition)
Description: Cotton leaf discs were placed onto agar in 24-well microtiter plates and sprayed with aqueous test solutions prepared from 10'000 ppm DMSO stock solutions. After drying the leaf discs were infested with five L1 larvae. The samples were assessed for mortality, anti-feeding effect, and growth inhibition in comparison to untreated samples 3 days after infestation. Control of Spodoptera littoralis by a test sample is given when at least one of the categories mortality, anti-feedant effect, and growth inhibition is higher than the untreated sample.

[5] = system: Euschistus heros; experiment: Euschistus heros (neotropical brown stink bug), sprayed soybean leaves; conditions: 120 h, application rate 200 ppm, N2 nymphs, 5 days after infestation, read-out: effect in at least one of the two categories (mortality or growth inhibition)
Description: Soybean leaves on agar in 24-well microtiter plates were sprayed with aqueous test solutions prepared from 10'000 ppm DMSO stock solutions. After drying the leaves were infested with N2 nymphs. The samples were assessed for mortality and growth inhibition in comparison to untreated samples 5 days after infestation.
as §2

[6] = system: Thrips tabaci; experiment: Thrips tabaci (onion thrips): feeding/contact activity; conditions: 144 h
Description: Sunflower leaf discs were placed on agar in 24-well microtiter plates and sprayed with aqueous test solutions prepared from 10'000 ppm DMSO stock solutions. After drying the leaf discs were infested with a Thrips population of mixed ages. The samples were assessed for mortality 6 days after infestation.

[7] = application rate 200 ppm, L1 larvae, 3 days after infestation
[8] = application rate 200 ppm, Thrips population of mixed ages, 6 days after infestation, read-out: mortality

Cc1cc(C2=NO[C@@](c3cc(Cl)c(F)c(Cl)c3)(C(F)(F)F)C2)ccc1C(=O)NC1CON(S(=O)(=O)c2ccc(Cl)cc2)C1 (stereo partly drawn) [Compound A2, N-[2-(4-chlorophenyl)sulfonylisoxazolidin-4-yl]-4-[(5S)-5-(3,5-dichloro-4-fluoro-phenyl)-5-(trifluoromethyl)-4H-isoxazol-3-yl]-2-methyl-benzamide]
≥ 80%: percent effect (mortality or growth inhibition) at 200 ppm [1] | mortality at 200 ppm [2] | percent effect (mortality or growth inhibition) at 200 ppm [3] | mortality at 200 ppm [4, 7] | percent effect (mortality or growth inhibition) at 200 ppm [5] | mortality at 200 ppm [6, 8]

Cc1cc(C2=NO[C@@](c3cc(Cl)c(F)c(Cl)c3)(C(F)(F)F)C2)ccc1C(=O)NC1CON(S(=O)(=O)c2cccs2)C1 (stereo partly shown) [Compound A9]
≥ 80%: percent effect (mortality or growth inhibition) at 200 ppm [1] | mortality at 200 ppm [2] | percent effect (mortality or growth inhibition) at 200 ppm [3] | mortality at 200 ppm [4, 7] | percent effect (mortality or growth inhibition) at 200 ppm [5] | mortality at 200 ppm [6, 8]

Cc1cc(C2=NO[C@@](c3cc(Cl)c(Cl)c(Cl)c3)(C(F)(F)F)C2)ccc1C(=O)NC1CON(S(C)(=O)=O)C1 (stereo partly drawn) [Compound A26, 2-methyl-N-(2-methylsulfonylisoxazolidin-4-yl)-4-[(5S)-5-(3,4,5-trichlorophenyl)-5-(trifluoromethyl)-4H-isoxazol-3-yl]benzamide]
≥ 80%: percent effect (mortality or growth inhibition) at 200 ppm [5]

CS(=O)(=O)N1CC(NC(=O)c2ccc(C3=NOC(c4cc(Cl)cc(Cl)c4)(C(F)(F)F)C3)c3ccccc23)CO1 (stereo not shown) [Compound A46]
≥ 80%: percent effect (mortality or growth inhibition) at 200 ppm [1] | mortality at 200 ppm [2] | percent effect (mortality or growth inhibition) at 200 ppm [3] | mortality at 200 ppm [4, 7] | percent effect (mortality or growth inhibition) at 200 ppm [5] | mortality at 200 ppm [6, 8]

CS(=O)(=O)N1CC(NC(=O)c2ccc(C3=NOC(c4cc(Cl)cc(Cl)c4)(C(F)(F)F)C3)cc2C#N)CO1 (stereo not shown) [Compound A47]
≥ 80%: mortality at 200 ppm [4, 7]

CS(=O)(=O)N1CC(NC(=O)c2ccc(C3=NOC(c4cc(Cl)cc(Cl)c4)(C(F)(F)F)C3)cc2Cl)CO1 (stereo not shown) [Compound A49]
≥ 80%: percent effect (mortality or growth inhibition) at 200 ppm [1] | mortality at 200 ppm [2] | percent effect (mortality or growth inhibition) at 200 ppm [3] | mortality at 200 ppm [4, 7] | percent effect (mortality or growth inhibition) at 200 ppm [5] | mortality at 200 ppm [6, 8]

Cc1cc(Cl)cc(C2(C(F)(F)F)CC(c3ccc(C(=O)NC4CON(S(C)(=O)=O)C4)c(C)c3)=NO2)c1 (stereo not shown) [Compound A51]
≥ 80%: percent effect (mortality or growth inhibition) at 200 ppm [1] | mortality at 200 ppm [2] | percent effect (mortality or growth inhibition) at 200 ppm [3] | mortality at 200 ppm [4, 7] | mortality at 200 ppm [6, 8]

Cc1cc(C2=NOC(c3ccc(OC(F)(F)F)cc3)(C(F)(F)F)C2)ccc1C(=O)NC1CON(S(C)(=O)=O)C1 (stereo not shown) [Compound A53]
≥ 80%: percent effect (mortality or growth inhibition) at 200 ppm [1] | mortality at 200 ppm [2] | percent effect (mortality or growth inhibition) at 200 ppm [3] | mortality at 200 ppm [4, 7]

Cc1cc(C2=NOC(c3ccnc(F)c3)(C(F)(F)F)C2)ccc1C(=O)NC1CON(S(C)(=O)=O)C1 (stereo not shown) [Compound A54]
≥ 80%: percent effect (mortality or growth inhibition) at 200 ppm [1] | mortality at 200 ppm [2] | percent effect (mortality or growth inhibition) at 200 ppm [3] | mortality at 200 ppm [4, 7] | percent effect (mortality or growth inhibition) at 200 ppm [5]

Cc1cc(C2=NOC(c3ccc(Br)cc3)(C(F)(F)F)C2)ccc1C(=O)NC1CON(S(C)(=O)=O)C1 (stereo not shown) [Compound A55]
≥ 80%: percent effect (mortality or growth inhibition) at 200 ppm [1] | mortality at 200 ppm [2] | percent effect (mortality or growth inhibition) at 200 ppm [3] | mortality at 200 ppm [4, 7] | mortality at 200 ppm [6, 8]

CS(=O)(=O)N1CC(NC(=O)c2ccc(C3=NOC(c4cc(Cl)cc(Cl)c4)(C(F)(F)F)C3)c3ncccc23)CO1 (stereo not shown) [Compound A56]
≥ 80%: percent effect (mortality or growth inhibition) at 200 ppm [1] | mortality at 200 ppm [4, 7]

CS(=O)(=O)N1CC(NC(=O)c2ccc(C3=NOC(c4cc(Cl)cc(Cl)c4)(C(F)(F)F)C3)cc2C(F)(F)F)CO1 (stereo not shown) [Compound A58]
≥ 80%: percent effect (mortality or growth inhibition) at 200 ppm [1] | mortality at 200 ppm [2] | percent effect (mortality or growth inhibition) at 200 ppm [3] | mortality at 200 ppm [4, 7] | percent effect (mortality or growth inhibition) at 200 ppm [5] | mortality at 200 ppm [6, 8]

Cc1cc(C2=NOC(c3cccc(C(F)(F)F)c3)(C(F)(F)F)C2)ccc1C(=O)NC1CON(S(C)(=O)=O)C1 (stereo not shown) [Compound A60]
≥ 80%: percent effect (mortality or growth inhibition) at 200 ppm [1] | mortality at 200 ppm [2] | percent effect (mortality or growth inhibition) at 200 ppm [3] | mortality at 200 ppm [4, 7] | percent effect (mortality or growth inhibition) at 200 ppm [5] | mortality at 200 ppm [6, 8]

Cc1cc(C2=NO[C@@](c3ccc(C(F)(F)F)c(F)c3)(C(F)(F)F)C2)ccc1C(=O)N[C@H]1CON(S(C)(=O)=O)C1 [Compound A170]
≥ 80%: percent effect (mortality or growth inhibition) at 200 ppm [1] | mortality at 200 ppm [2] | percent effect (mortality or growth inhibition) at 200 ppm [3] | mortality at 200 ppm [4, 7] | mortality at 200 ppm [6, 8]

Cc1cc(C2=NO[C@](c3ccc(C(F)(F)F)c(F)c3)(C(F)(F)F)C2)ccc1C(=O)N[C@@H]1CON(S(=O)(=O)N(C)C)C1 [Compound A171]
≥ 80%: percent effect (mortality or growth inhibition) at 200 ppm [1] | mortality at 200 ppm [2] | percent effect (mortality or growth inhibition) at 200 ppm [3] | mortality at 200 ppm [4, 7] | mortality at 200 ppm [6, 8]

C=CS(=O)(=O)N1C[C@H](NC(=O)c2ccc(C3=NO[C@@](c4cc(Cl)cc(Cl)c4)(C(F)(F)F)C3)cc2C)CO1 [Compound A175]
≥ 80%: mortality at 200 ppm [4, 7]

Cc1cc(C2=NO[C@](c3cc(Cl)cc(Cl)c3)(C(F)(F)F)C2)ccc1C(=O)N[C@H]1CON(S(=O)(=O)CCBr)C1 [Compound A177, N-[(4R)-2-(2-bromoethylsulfonyl)-1,2-oxazolidin-4-yl]-4-[(5R)-5-(3,5-dichlorophenyl)-5-(trifluoromethyl)-4H-1,2-oxazol-3-yl]-2-methylbenzamide]
≥ 80%: percent control (mortality or growth inhibition) at 200 ppm [1] | mortality at 200 ppm [4] | mortality at 200 ppm [6]

CNS(=O)(=O)N1C[C@H](NC(=O)c2ccc(C3=NO[C@@](c4ccc(C(F)(F)F)c(F)c4)(C(F)(F)F)C3)cc2C)CO1 [Compound A182]
≥ 80%: percent effect (mortality or growth inhibition) at 200 ppm [1] | mortality at 200 ppm [2] | percent effect (mortality or growth inhibition) at 200 ppm [3] | mortality at 200 ppm [4, 7] | mortality at 200 ppm [6, 8]

C=CS(=O)(=O)N1C[C@@H](NC(=O)c2ccc(C3=NO[C@@](c4cc(Cl)c(F)c(Cl)c4)(C(F)(F)F)C3)cc2C)CO1 [Compound A193, 4-[(5S)-5-(3,5-dichloro-4-fluorophenyl)-5-(trifluoromethyl)-4H-1,2-oxazol-3-yl]-N-[(4R)-2-ethenylsulfonyl-1,2-oxazolidin-4-yl]-2-methylbenzamide]
≥ 80%: percent effect (mortality or growth inhibition) at 200 ppm [1] | mortality at 200 ppm [2] | mortality at 200 ppm [4, 7] | mortality at 200 ppm [6, 8]

CNC(=O)CS(=O)(=O)N1C[C@H](NC(=O)c2ccc(C3=NO[C@@](c4cc(Cl)cc(Cl)c4)(C(F)(F)F)C3)cc2C)CO1 [Compound A201]
≥ 80%: percent effect (mortality or growth inhibition) at 200 ppm [1] | mortality at 200 ppm [2] | percent effect (mortality or growth inhibition) at 200 ppm [3] | mortality at 200 ppm [4, 7] | percent effect (mortality or growth inhibition) at 200 ppm [5]

Cc1cc(C2=NOC(c3cc(C(F)(F)F)ccn3)(C(F)(F)F)C2)ccc1C(=O)N[C@H]1CON(S(C)(=O)=O)C1 (stereo partly shown) [Compound A222]
≥ 80%: percent effect (mortality or growth inhibition) at 200 ppm [1] | mortality at 200 ppm [2] | percent effect (mortality or growth inhibition) at 200 ppm [3] | mortality at 200 ppm [4, 7]

Cc1nc(C2=NOC(c3cc(Cl)cc(Cl)c3)(C(F)(F)F)C2)ccc1C(=O)NC1CON(S(C)(=O)=O)C1 (stereo not shown) [Compound A237]
≥ 80%: percent effect (mortality or growth inhibition) at 200 ppm [1] | percent effect (mortality or growth inhibition) at 200 ppm [3] | mortality at 200 ppm [4, 7]

CS(=O)(=O)N1CC(NC(=O)c2ccc(C3=NOC(c4cc(Cl)cc(Cl)c4)(C(F)(F)F)C3)cn2)CO1 (stereo not shown) [Compound A238]
≥ 80%: mortality at 200 ppm [4, 7]

CS(=O)(=O)N1CC(NC(=O)c2cnc(C3=NOC(c4cc(Cl)cc(Cl)c4)(C(F)(F)F)C3)c3ccccc23)CO1 (stereo not shown) [Compound A239]
≥ 80%: percent effect (mortality or growth inhibition) at 200 ppm [1] | percent effect (mortality or growth inhibition) at 200 ppm [3] | mortality at 200 ppm [4, 7] | percent effect (mortality or growth inhibition) at 200 ppm [5] | mortality at 200 ppm [6, 8]
